Read-outs that look alike come from different tables or passages of the source.

In this test the test system is HIV-1 (H9/IIB strain). In words: Multiple Round HIV-1 Infection Assay (Viking Assay) in MT4-GFP cells. The test is classed as cell-based. Particulars: inhibition of reproductive ratio R0. Summed up:
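MT-4 cells with tat/rev-dependent GFP reporter infected overnight with virus at MOI ~0.01, then incubated in RPMI with 10% or 50% normal human serum with 10-point 3-fold dilutions (typically 8.4 μM–0.42 nM final). Green cells counted at ~48 and ~72 h to give R0; IC50 from 4-parameter fit of R0 inhibition.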

Where [1] appears, read: MT4-GFP cells infected with HIV-1, 10% normal human serum, read-out: Viking, IC50 (10% NHS).
Setting [2] is: MT4-GFP cells infected with HIV-1, 50% normal human serum, read-out: Viking, IC50 (50% NHS).

With `CCCOC(=O)C(C)(C)NP(=O)(CO[C@H](C)Cn1cnc2c(N)ncnc21)N[C@@H](C)c1ccc(Cl)cc1C` (stereo partly drawn) [Example 30B, propyl 2-(((R)-((((R)-1-(6-amino-9H-purin-9-yl)propan-2-yl)oxy)methyl)(((S)-1-(4-chloro-2-methylphenyl)ethyl)amino)phosphoryl)ami-no)-2-methylpropanoate and propyl 2-(((S)-((((R)-1-(6-amino-9H-purin-9-yl)propan-2-yl)oxy)methyl)(((S)-1-(4-chloro-2-methylphenyl)ethyl)amino)phosphoryl)ami-no)-2-methylpropanoate], the IC50 came out at 56 nM under setting [1] and 750 nM under setting [2].

For the molecule `CCCOC(=O)C(C)(C)N[P@](=O)(CO[C@H](C)Cn1cnc2c(N)ncnc21)N(C)[C@H](C)c1ccc(OC(F)(F)F)cc1` [Example 33A, propyl 2-(((R)-((((R)-1-(6-amino-9H-purin-9-yl)propan-2-yl)oxy)methyl)(methyl((R)-1-(4-(trifluoromethoxy)phenyl)ethyl)amino)phos-phoryl)amino)-2-methylpropanoate and propyl 2-(((S)-((((R)-1-(6-amino-9H-purin-9-yl)propan-2-yl)oxy)methyl)(methyl((R)-1-(4-(trifluoromethoxy)phenyl)ethyl)amino)phos-phoryl)amino)-2-methylpropanoate], the IC50 runs as follows: under setting [1], 25 nM; under setting [2], 84 nM.

Consider `CCCOC(=O)C(C)(C)N[P@@](=O)(CO[C@H](C)Cn1cnc2c(N)ncnc21)NCc1ccc(OC(F)(F)F)cc1` [Example 7B, propyl 2-(((R)-((((R)-1-(6-amino-9H-purin-9-yl)propan-2-yl)oxy)methyl)((4-(trifluoromethoxy)benzyl)amino)phos-phoryl)amino)-2-methylpropanoate and propyl 2-(((S)-((((R)-1-(6-amino-9H-purin-9-yl)propan-2-yl)oxy)methyl)((4-(trifluoromethoxy)benzyl)amino)phos-phoryl)amino)-2-methylpropanoate], for which the IC50 by setting is: under setting [1], 45 nM; under setting [2], 300 nM.

In the case of `CCCOC(=O)C(C)(C)N[P@@](=O)(CO[C@H](C)Cn1cnc2c(N)ncnc21)N[C@@H](C)c1ccc(OC)cc1` [Example 14B, propyl 2-(((R)-((((R)-1-(6-amino-9H-purin-9-yl)propan-2-yl)oxy)methyl)(((S)-1-(4-methoxyphenyl)ethyl)amino)phosphoryl)a-mino)-2-methylpropanoate and propyl 2-(((S)-((((R)-1-(6-amino-9H-purin-9-yl)propan-2-yl)oxy)methyl)(((S)-1-(4-methoxyphenyl)ethyl)amino)phosphoryl)a-mino)-2-methylpropanoate], the IC50 stood at 52 nM under setting [1] and 280 nM under setting [2].

Take `CCCOC(=O)C(C)(C)N[P@@](=O)(CO[C@H](C)Cn1cnc2c(N)ncnc21)N[C@@H](c1ccc(C#N)cc1)C(F)(F)F.CCCOC(=O)C(C)(C)N[P@](=O)(CO[C@H](C)Cn1cnc2c(N)ncnc21)N[C@@H](c1ccc(C#N)cc1)C(F)(F)F` (mixture of isomers) [Example 24A, propyl 2-(((R)-((((R)-1-(6-amino-9H-purin-9-yl)propan-2-yl)oxy)methyl)(((S)-1-(4-cyanophenyl)-2,2,2-trifluoroethyl)amino)phosphoryl)amino)-2-methylpropanoate and propyl 2-(((S)-((((R)-1-(6-amino-9H-purin-9-yl)propan-2-yl)oxy)methyl)(((S)-1-(4-cyanophenyl)-2,2,2-trifluoroethyl)amino)phosphoryl)amino)-2-methylpropanoate]: the IC50 by setting is: under setting [1], 6.3 nM; under setting [2], 30 nM.

With “propyl 2-(((R)-((((R)-1-(6-amino-9H-purin- 9-yl)propan-2-yl)oxy)methyl)(((S)-1-(p- tolyl)ethyl)amino)phosphoryl)amino)-2- methylpropanoate and propyl 2-(((S)-((((R)-1-(6-amino-9H-purin- 9-yl)propan-2-yl)oxy)methyl)(((S)-1-(p- tolyl)ethyl)amino)phosphoryl)amino)-2- methylpropanoate [Example 18A]”, the IC50 worked out at 13 nM under setting [1] and 140 nM under setting [2].

(Values after patent publication US11123355B2, “Antiviral benzyl-amine phosphodiamide compounds” (Merck Sharp & Dohme Corp., priority 2016, dated 2021).)
